Results reported in patent US20120046357A1, “Benzamide and Napthamide Derivatives Inhibiting Nuclear Factor-Kappa (B) - (NK-kB)” (Profectus Biosciences, Inc., priority 2009, published 2012).
Counter-ions that a name gives are not always drawn.

What was measured:
[1] = test system: NF-κB; test: 293/NFkB-luc reporter cell assay (TNF-α induced luciferase expression); assay type: cell-based; conditions: 293 cells; for EC50: pNF-κB-luc reporter, 2 h pretreatment, 20 ng/ml TNF-α 18 h
Method: (§1) Two reporter cell assays were used to determine the ability of the compound of Example 10 to inhibit NF-κB driven transcription. The first assay was a 293-cell based assay with a stably integrated pNF-κB-luc reporter plasmid containing 3 NF-κB promoter elements. The second assay was a 293-cell based assay with a stably integrated pTRH1-NF-κB-dscGFP reporter containing 4 NF-κB promoter elements. Cells were treated with 0, 0.2, 1, 10, 20 and 40 μM of the compound of Example 10 for 2 hours then were induced with 20 ng/ml TNF-α for 18 hours. Following the induction, luminescence or fluorescence was quantified using a Beckman-Coulter 2300 plate reader. […] These values represent the median value generated from three independent experiments. As a control, 0.5% DMSO treated and untreated cells were compared to verify that the compound of Example 10 had no effect on the expression of luciferase or in the readout of the assay. There was a slight decrease in the output from the assay in the DMSO treated population although it was not statistically significant. As a result of the controls, the decrease in activity in the drug treated samples was compared to the DMSO control sample.

[2] = test system: NF-κB; test: NF-κB/293/GFP reporter cell assay (TNF-α induced GFP expression); assay type: cell-based; conditions: for EC50: pTRH1-NF-κB-dscGFP reporter, 2 h pretreatment, 20 ng/ml TNF-α 18 h, read-out: NF-KB/293/GFP EC50
Method: as §1

[3] = biological target: T1, p65 (RelA) (Homo sapiens, UniProt Q04206); test: TransAM NF-κB family DNA binding ELISA, p65; assay type: biochemical; conditions: binding to NF-κB consensus oligonucleotide
T1 construct: purchased Active Motif
T1 sequence (Q04206 whole entry): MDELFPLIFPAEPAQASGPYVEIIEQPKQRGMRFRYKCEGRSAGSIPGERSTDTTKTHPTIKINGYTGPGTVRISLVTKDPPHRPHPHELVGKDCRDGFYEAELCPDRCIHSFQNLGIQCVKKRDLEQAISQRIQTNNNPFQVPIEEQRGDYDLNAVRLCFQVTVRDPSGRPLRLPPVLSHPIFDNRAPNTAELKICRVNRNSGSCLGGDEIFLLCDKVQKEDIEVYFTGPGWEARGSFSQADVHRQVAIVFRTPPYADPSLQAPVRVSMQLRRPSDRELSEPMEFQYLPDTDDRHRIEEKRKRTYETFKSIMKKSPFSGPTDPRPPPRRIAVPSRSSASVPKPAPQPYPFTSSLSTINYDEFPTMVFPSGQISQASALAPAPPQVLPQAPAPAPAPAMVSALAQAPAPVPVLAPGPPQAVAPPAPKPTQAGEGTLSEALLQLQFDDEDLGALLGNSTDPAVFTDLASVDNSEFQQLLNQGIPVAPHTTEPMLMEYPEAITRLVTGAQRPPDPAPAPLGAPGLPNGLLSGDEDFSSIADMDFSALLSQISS
Method: (§2) The binding activity of NF-κB heterodimer or homodimer subunits from activated nuclear extracts or purified recombinant NF-κB proteins exposed to the drug compounds was evaluated using the TransAM NF-κB Family binding ELISA (Active Motif). 3-5 μg of nuclear extracts from TNFα activated Hela or Raji cells (Active Motif) or 20 ng of purified recombinant proteins (p65 and p50 from Active Motif, p52 from Santa Cruz) were incubated for 1 hour at room temperature with 20 μL drug compounds diluted in Complete Lysis buffer without DTT. Treated samples were then transferred to 30 μL Complete Binding Buffer (with DTT) in microplate wells pre-coated with the NF-κB consensus oligonucleotide. […] The plate was incubated for 1 hour at room temperature with gentle shaking and then washed 3 times with 200 μL 1× Wash Buffer. NF-κB p65, p50, p52, RelB, or c-Rel subunits bound to the plate were detected with 100 μL of the primary antibody (diluted 1:1000 in 1× Antibody Buffer) specific for that subunit. The plate was incubated for 1 hour at room temperature and then washed 3 times with 200 μL 1× Wash Buffer. Next, 100 μL of a HRP conjugated goat anti-rabbit antibody (diluted 1:1,000 in 1× Antibody Buffer) was added to each well. The plate was incubated for 1 hour at room temperature and then washed 4 times with 200 μL 1× Wash Buffer. 100 μL of room temperature Developing Solution was added to each well. The reaction was allowed to develop for 2-10 minutes until a medium dark blue color developed (depending on the subunit activity in the lot of extract or lot of recombinant protein used) and then the reaction was stopped with 100 μL Stop Solution yielding a yellow color. Absorbance was recorded using a Becton-Dickinson DTX 880 Multimode Detector at 450 nm with a reference wavelength subtracted at 620 nm. FIGS. 2, 3 and 4 illustrate the effect of Example 10 on inhibiting RelA, RelB and c-Rel binding to NF-κB sites.

[4] = biological target: T2, c-Rel (Homo sapiens, UniProt Q04864); test: TransAM NF-κB family DNA binding ELISA, c-Rel; assay type: biochemical; conditions: for IC50: binding to NF-κB consensus oligonucleotide, cells without % sign
T2 sequence (Q04864 2-619 limits assumed): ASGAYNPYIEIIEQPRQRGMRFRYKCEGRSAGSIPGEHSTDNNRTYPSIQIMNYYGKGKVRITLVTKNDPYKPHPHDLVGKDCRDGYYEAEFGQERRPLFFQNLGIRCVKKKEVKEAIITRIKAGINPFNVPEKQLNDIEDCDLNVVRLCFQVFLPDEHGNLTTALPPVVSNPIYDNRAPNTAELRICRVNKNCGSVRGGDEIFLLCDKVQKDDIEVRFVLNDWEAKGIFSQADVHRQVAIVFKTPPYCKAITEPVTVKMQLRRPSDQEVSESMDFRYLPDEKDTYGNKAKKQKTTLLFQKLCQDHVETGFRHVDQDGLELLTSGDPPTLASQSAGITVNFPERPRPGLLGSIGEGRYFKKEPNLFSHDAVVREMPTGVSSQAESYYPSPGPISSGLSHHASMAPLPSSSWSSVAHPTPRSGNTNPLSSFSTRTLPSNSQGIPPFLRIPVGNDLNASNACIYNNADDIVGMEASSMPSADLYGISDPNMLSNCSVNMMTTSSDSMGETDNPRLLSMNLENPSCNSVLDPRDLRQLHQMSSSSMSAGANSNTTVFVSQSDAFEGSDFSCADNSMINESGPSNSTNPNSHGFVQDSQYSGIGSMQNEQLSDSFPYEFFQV
Method: as §2

[5] = Homo sapiens, HEK293, 293 cells

Structure (SMILES)	EC50 ([1]; 293/NFkB-luc)	EC50 [2, 5]	IC50 [3]	inhibition at 5 µM [4]	EC50 ([1]; trifluoroacetate)	EC50 ([2]; 293 cells, trifluoroacetate)	IC50 [4]	IC50 ([1]; Homo sapiens, HEK293, median of three independent experiments, 20 ng/ml TNF-α, read-out: median IC50, inhibition of expression of the luciferase gene)	IC50 ([2]; Homo sapiens, HEK293, median of three independent experiments, 293 cells, 20 ng/ml TNF-α, read-out: median IC50, inhibition of expression of the Green fluorescent protein gene)
O=C(NC1=CC(=O)C2OC2C1O)c1cc2ccccc2cc1O (racemic) [Example 7, (±)-3-hydroxy-N-(2-hydroxy-5-oxo-7-oxabicyclo[4.1.0]hept-3-en-3-yl)-2-naphthamide]	21 µM	4.7 µM	488 µM	2%					
COc1ccc(C(=O)NC2=CC(=O)C3OC3C2O)c(O)c1 (racemic) [Example 5, (±)-2-hydroxy-N-(2-hydroxy-5-oxo-7-oxabicyclo[4.1.0]hept-3-en-3-yl)-4-methoxybenzamide]	32 µM	6.1 µM	14.2 µM	6%					
O=C(NC1=CC(=O)C2OC2C1O)c1ccc(Cl)cc1O (racemic) [Example 2, (±)-4-chloro-2-hydroxy-N-(2-hydroxy-5-oxo-7-oxabicyclo[4.1.0]hept-3-en-3-yl)benzamide]	12 µM	7 µM	26.3 µM	7%					
CN(C)c1ccc(C(=O)NC2=CC(=O)C3OC3C2O)c(O)c1 (racemic) [Example 19, (±)-4-(dimethylamino)-2-hydroxy-N-(2-hydroxy-5-oxo-7-oxabicyclo[4.1.0]hept-3-en-3-yl)benzamide trifluoroacetate]			3 µM		7.5 µM	1.7 µM	14 µM		
COc1cc(N(C)C)ccc1C(=O)NC1=CC(=O)C2OC2C1O (racemic) [Example 20, (±)-4-(dimethylamino)-N-(2-hydroxy-5-oxo-7-oxabicyclo[4.1.0]hept-3-en-3-yl)-2-methoxybenzamide]	4.6 µM	1.3 µM	0.91 µM				1.9 µM		
O=C(NC1=CC(=O)C2OC2C1O)c1cccc(Cl)c1O (racemic) [Example 6, (±)-3-chloro-2-hydroxy-N-(2-hydroxy-5-oxo-7-oxabicyclo[4.1.0]hept-3-en-3-yl)benzamide]	37 µM	14 µM	19.4 µM	7%					
O=C(NC1=CC(=O)C2OC2C1O)c1cc2cc(Br)ccc2cc1O (racemic) [Example 15, (±)-7-bromo-3-hydroxy-N-(2-hydroxy-5-oxo-7-oxabicyclo[4.1.0]hept-3-en-3-yl)-2-naphthamide]	8 µM	2.4 µM	241 µM				3.7 µM		
COc1c(C(=O)NC2=CC(=O)C3OC3C2O)ccc(F)c1F (racemic) [Example 16, (±)-3,4-difluoro-N-(2-hydroxy-5-oxo-7-oxabicyclo[4.1.0]hept-3-en-3-yl)-2-methoxybenzamide]	8.7 µM	2.6 µM	1.5 µM				8.1 µM		
Cc1ccc(C(C)C)c(C(=O)NC2=CC(=O)C3OC3C2O)c1O (racemic) [Example 17, (±)-2-hydroxy-N-(2-hydroxy-5-oxo-7-oxabicyclo[4.1.0]hept-3-en-3-yl)-6-isopropyl-3-methylbenzamide]	3.7 µM	6.7 µM	295 µM				232 µM		
COc1ccc2cc(O)c(C(=O)NC3=CC(=O)C4OC4C3O)cc2c1 (racemic) [Example 11, (±)-3-hydroxy-N-(2-hydroxy-5-oxo-7-oxabicyclo[4.1.0]hept-3-en-3-yl)-7-methoxy-2-naphthamide]	7.7 µM	5 µM	479 µM				16 µM		
O=C(NC1=CC(=O)C2OC2C1O)c1ccc(C(F)(F)F)cc1O (racemic) [Example 1, 2-hydroxy-N-(2-hydroxy-5-oxo-7-oxabicyclo[4.1.0]hept-3-en-3-yl)-4-(trifluoromethyl)benzamide]	36 µM	3.4 µM	66.3 µM	1%					
CN(C)c1ccc(C(=O)NC2=CC(=O)C3OC3C2O)c(O)c1 (racemic) [Example 10, (±)-4-(dimethylamino)-2-hydroxy-N-(2-hydroxy-5-oxo-7-oxabicyclo[4.1.0]hept-3-en-3-yl)benzamide]	8.7 µM	2.5 µM	3.9 µM				17 µM	8.7 µM	2.5 µM
O=C(NC1=CC(=O)C2OC2C1O)c1ccc2ccccc2c1O (racemic) [Example 8, (±)-1-hydroxy-N-(2-hydroxy-5-oxo-7-oxabicyclo[4.1.0]hept-3-en-3-yl)-2-naphthamide]	7.1 µM	7.1 µM	45.2 µM	3%					
Cc1ccc(C(=O)NC2=CC(=O)C3OC3C2O)c(O)c1 (racemic) [Example 3, (±)-2-hydroxy-N-(2-hydroxy-5-oxo-7-oxabicyclo[4.1.0]hept-3-en-3-yl)-4-methylbenzamide]	20 µM	9 µM	17 µM	5%					
Cc1cccc(C(=O)NC2=CC(=O)C3OC3C2O)c1O (racemic) [Example 4, (±)-2-hydroxy-N-(2-hydroxy-5-oxo-7-oxabicyclo[4.1.0]hept-3-en-3-yl)-3-methylbenzamide]	19 µM	18 µM	36.3 µM	0%					
O=C(NC1=CC(=O)C2OC2C1O)c1cc(Br)ccc1O (racemic) [Example 9, (±)-5-bromo-2-hydroxy-N-(2-hydroxy-5-oxo-7-oxabicyclo[4.1.0]hept-3-en-3-yl)benzamide]	27 µM	5.2 µM	17.7 µM	20%					
